Key:
GPR6 = biological target: T1, GPR6 (Homo sapiens, UniProt P46095); experiment: GPR6 antagonist functional cAMP assay (LANCE Ultra cAMP TR-FRET, CHO cells stably expressing GPR6); format: cell-based; details: procedure of Example 24
T1 construct: expressed in transfected cells; host or cells: CHO cells
In short: (§1)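 cAMP quantified by TR-FRET immunoassay after 45 min compound treatment at 37° C of CHO cells stably expressing GPR3 or GPR6, in PDE-inhibitor (Ro 20-1724, 150 μM) buffer with 0.1% BSA. Data scaled between DMSO (0%) and reference compounds (100%); antagonist IC50 by 4-parameter logistic fit.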

GPR3 = biological target: T2, GPR3 (Homo sapiens, UniProt P46089); experiment: GPR3 antagonist functional cAMP assay (LANCE Ultra cAMP TR-FRET, CHO cells stably expressing GPR3); format: cell-based; details: procedure of Example 24
T2 construct: expressed in transfected cells; host or cells: CHO cells
T2 sequence (P46089 whole entry, species assumed): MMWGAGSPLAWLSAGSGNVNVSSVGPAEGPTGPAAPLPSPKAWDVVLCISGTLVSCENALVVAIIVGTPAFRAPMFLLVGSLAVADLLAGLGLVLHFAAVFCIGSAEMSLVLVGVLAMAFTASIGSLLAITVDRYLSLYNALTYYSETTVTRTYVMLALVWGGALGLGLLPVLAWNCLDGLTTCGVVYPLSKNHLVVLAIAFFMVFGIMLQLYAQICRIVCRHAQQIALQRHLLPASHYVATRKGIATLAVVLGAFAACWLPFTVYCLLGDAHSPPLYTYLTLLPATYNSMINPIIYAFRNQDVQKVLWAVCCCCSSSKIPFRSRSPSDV
In short: as §1

T1 sequence (P46095 whole entry): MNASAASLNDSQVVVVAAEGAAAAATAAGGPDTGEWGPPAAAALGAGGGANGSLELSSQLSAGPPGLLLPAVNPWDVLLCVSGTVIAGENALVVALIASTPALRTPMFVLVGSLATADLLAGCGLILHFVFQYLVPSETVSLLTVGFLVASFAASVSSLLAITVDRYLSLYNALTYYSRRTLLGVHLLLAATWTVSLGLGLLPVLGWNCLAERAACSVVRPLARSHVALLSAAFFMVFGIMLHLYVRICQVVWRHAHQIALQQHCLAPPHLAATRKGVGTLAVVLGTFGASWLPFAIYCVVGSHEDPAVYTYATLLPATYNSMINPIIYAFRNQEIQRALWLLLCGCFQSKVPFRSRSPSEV

Structure (SMILES) | IC50 (GPR6) [µM] | IC50 (GPR3) [µM]
Cn1cc(-c2nc3cc([C@](C)(O)CO)ncc3nc2N2CCC(Oc3ccc(F)cc3F)CC2)cn1 (single isomer, unassigned) [Compound 691] | 0.1 to 1 | 1 to 30
Cn1cc(-c2nc3cc(C(C)(O)CO)ncc3nc2N2CCC(Oc3ccc(F)cc3F)CC2)cn1 (single isomer, unassigned) [Compound 692] | 0.1 to 1 | 1 to 30
CC(C)(O)[C@](C)(O)c1cc2nc(N3CCN(Cc4ccc(F)cc4F)CC3)c(-c3cnn(C(F)F)c3)nc2cn1 (single isomer, unassigned) [Compound 694] | 0.1 to 1 | 1 to 30
CC(C)(O)[C@@](C)(O)c1cc2nc(N3CCN(Cc4ccc(F)cc4F)CC3)c(-c3cnn(C(F)F)c3)nc2cn1 (single isomer, unassigned) [Compound 695] | 0.1 to 1 | 1 to 30
CCn1cc(-c2nc3cnc([C@](C)(O)C(C)(C)O)cc3nc2N2CCN(Cc3ccc(F)cc3F)CC2)cn1 (single isomer, unassigned) [Compound 697] | 0.1 to 1 | 1 to 30
CC(C)(O)C(C)(O)c1cc2nc(-c3cnn(C(F)F)c3)c(N3CCN(Cc4ccccc4F)CC3)nc2cn1 (single isomer, unassigned) [Compound 708] | 0.1 to 1 | 1 to 30
CC(C)(O)C(C)(O)c1cc2nc(-c3cnn(C(F)F)c3)c(N3CCN(Cc4ccccc4F)CC3)nc2cn1 (single isomer, unassigned) [Compound 709] | 0.1 to 1 | 1 to 30
CC(C)(O)[C@@](C)(O)c1cc2nc(-c3cnn(CF)c3)c(N3CCN(Cc4ccc(F)cc4F)CC3)nc2cn1 (single isomer, unassigned) [Compound 711] | 0.1 to 1 | 1 to 30
CC(C)(O)[C@](C)(O)c1cc2nc(-c3cnn(CF)c3)c(N3CCN(Cc4ccc(F)cc4F)CC3)nc2cn1 (single isomer, unassigned) [Compound 712] | 0.1 to 1 | 1 to 30
CC(C)(O)[C@@H](O)c1cc2nc(-c3cnn(CF)c3)c(N3CCN(Cc4ccccc4F)CC3)nc2cn1 (single isomer, unassigned) [Compound 713] | 0.1 to 1 | 1 to 30
CC(C)(O)[C@@](C)(O)c1cc2nc(-c3cnn(CF)c3)c(N3CCN(Cc4ccccc4F)CC3)nc2cn1 (single isomer, unassigned) [Compound 715] | 0.1 to 1 | 1 to 30
Cn1cc(-c2nc3cnc([C@@H](O)C(C)(C)O)cc3nc2N2CCC(=Cc3ccc(F)cc3F)CC2)cn1 (single isomer, unassigned) [Compound 719] | < 0.1 | 1 to 30
Cn1cc(-c2nc3cnc([C@H](O)C(C)(C)O)cc3nc2N2CCC(=Cc3ccc(F)cc3F)CC2)cn1 (single isomer, unassigned) [Compound 720] | < 0.1 | 1 to 30
CC(C)(O)C(C)(O)c1cc2nc(-c3cnn(C4CC4)c3)c(N3CCC(Oc4ccc(F)cc4F)CC3)nc2cn1 (single isomer, unassigned) [Compound 721] | 0.1 to 1 | 1 to 30
CC(C)(O)C(C)(O)c1cc2nc(-c3cnn(C4CC4)c3)c(N3CCC(Oc4ccc(F)cc4F)CC3)nc2cn1 (single isomer, unassigned) [Compound 722] | 0.1 to 1 | 1 to 30
CC(C)(O)C(O)c1cc2nc(-c3cnn(CF)c3)c(N3CCN(Cc4cc(F)ccc4F)CC3)nc2cn1 (single isomer, unassigned) [Compound 723] | 0.1 to 1 | 1 to 30
CC(C)(O)[C@@H](O)c1cc2nc(-c3cnn(CF)c3)c(N3CCN(Cc4cc(F)ccc4F)CC3)nc2cn1 (single isomer, unassigned) [Compound 724] | 0.1 to 1 | 1 to 30
CC(C)(O)[C@@H](O)c1cc2nc(N3CCN(Cc4cc(F)ccc4F)CC3)c(-c3cnn(CF)c3)nc2cn1 (single isomer, unassigned) [Compound 725] | 0.1 to 1 | ≥ 30
CC(C)(O)[C@H](O)c1cc2nc(N3CCN(Cc4cc(F)ccc4F)CC3)c(-c3cnn(CF)c3)nc2cn1 (single isomer, unassigned) [Compound 726] | 0.1 to 1 | 1 to 30
CC(C)(O)[C@@H](O)c1cc2nc(N3CCC(Cc4ccc(F)cc4F)CC3)c(-c3cnn(CF)c3)nc2cn1 (single isomer, unassigned) [Compound 727] | 0.1 to 1 | 0.1 to 1
CC(C)(O)[C@H](O)c1cc2nc(N3CCC(Cc4ccc(F)cc4F)CC3)c(-c3cnn(CF)c3)nc2cn1 (single isomer, unassigned) [Compound 728] | < 0.1 | 0.1 to 1
CC(C)(O)[C@H](O)c1cc2nc(N3CCN(Cc4ccccc4F)CC3)c(-c3cnn(C4CC4)c3)nc2cn1 (single isomer, unassigned) [Compound 732] | 0.1 to 1 | 1 to 30
COC(=O)[C@H]1C[C@@H]1c1cc2nc(N3CCC(Oc4ccc(F)cc4F)CC3)c(-c3cnn(C)c3)nc2cn1 (single isomer, unassigned) [Compound 733] | 0.1 to 1 | 1 to 30

Structure (SMILES) | IC50 (GPR6) [µM] | IC50 (GPR3) [µM]
CCn1cc(-c2nc3cnc([C@](C)(O)C(C)(C)O)cc3nc2N2CCC(Oc3ccc(F)cc3F)CC2)cn1 (single isomer, unassigned) [Compound 735] | 0.1 to 1 | 1 to 30
CCn1cc(-c2nc3cnc([C@@](C)(O)C(C)(C)O)cc3nc2N2CCC(Oc3ccc(F)cc3F)CC2)cn1 (single isomer, unassigned) [Compound 736] | 0.1 to 1 | 1 to 30
Cn1cc(-c2nc3cnc([C@H]4C[C@@H]4C(=O)O)cc3nc2N2CCC(Oc3ccc(F)cc3F)CC2)cn1 (single isomer, unassigned) [Compound 737] | 1 to 30 | 1 to 30
Cn1cc(-c2nc3cc([C@@](C)(O)C(C)(C)O)ncc3nc2N2CCC(Oc3ccc(F)cc3F)CC2)cn1 (single isomer, unassigned) [Compound 739] | 0.1 to 1 | 1 to 30
CCn1cc(-c2nc3cc(C(C)(O)C(C)(C)O)ncc3nc2N2CCC(Oc3ccc(F)cc3F)CC2)cn1 (single isomer, unassigned) [Compound 740] | 0.1 to 1 | 1 to 30
CCn1cc(-c2nc3cc(C(C)(O)C(C)(C)O)ncc3nc2N2CCC(Oc3ccc(F)cc3F)CC2)cn1 (single isomer, unassigned) [Compound 741] | 0.1 to 1 | 1 to 30
CC(C)(O)[C@@H](O)c1cc2nc(N3CCN(Cc4ccccc4F)CC3)c(-c3cnn(C4CC4)c3)nc2cn1 (single isomer, unassigned) [Compound 742] | 0.1 to 1 | 1 to 30
Cn1cc(-c2nc3cnc([C@H](O)C(C)(C)F)cc3nc2N2CCC(Oc3ccc(F)cc3F)CC2)cn1 (single isomer, unassigned) [Compound 743] | 0.1 to 1 | 1 to 30
Cn1cc(-c2nc3cnc([C@@H](O)C(C)(C)F)cc3nc2N2CCC(Oc3ccc(F)cc3F)CC2)cn1 (single isomer, unassigned) [Compound 744] | 0.1 to 1 | 1 to 30
CC(C)(O)[C@@H](O)c1cc2nc(-c3cnn(C4CC4)c3)c(N3CCN(Cc4ccccc4F)CC3)nc2cn1 (single isomer, unassigned) [Compound 746] | 0.1 to 1 | 1 to 30
CC(C)(O)[C@@](C)(O)c1cc2nc(N3CCN(Cc4ccccc4F)CC3)c(-c3cnn(C4CC4)c3)nc2cn1 (single isomer, unassigned) [Compound 747] | 0.1 to 1 | 1 to 30
Cn1cc(-c2nc3cc([C@@H](O)C(C)(C)O)ncc3nc2N2CCC(=Cc3ccc(F)cc3F)CC2)cn1 (single isomer, unassigned) [Compound 763] | < 0.1 | 0.1 to 1
Cn1cc(-c2nc3cc([C@H](O)C(C)(C)O)ncc3nc2N2CCC(=Cc3ccc(F)cc3F)CC2)cn1 (single isomer, unassigned) [Compound 764] | < 0.1 | 0.1 to 1
CC(C)(O)C(O)c1cc2nc(-c3cnn(C(F)F)c3)c(N3CCC(=Cc4ccc(F)cc4F)CC3)nc2cn1 (single isomer, unassigned) [Compound 766] | 0.1 to 1 | 1 to 30
CC(C)(O)C(O)c1cc2nc(-c3cnn(C(F)F)c3)c(N3CCC(=Cc4ccc(F)cc4F)CC3)nc2cn1 (single isomer, unassigned) [Compound 767] | 0.1 to 1 | 1 to 30
CC(C)(O)[C@@H](O)c1cc2nc(N3CCC(=Cc4ccc(F)cc4F)CC3)c(-c3cnn(C4CC4)c3)nc2cn1 (single isomer, unassigned) [Compound 769] | 0.1 to 1 | 1 to 30
CC(C)(O)[C@H](O)c1cc2nc(N3CCC(=Cc4ccc(F)cc4F)CC3)c(-c3cnn(C4CC4)c3)nc2cn1 (single isomer, unassigned) [Compound 770] | 0.1 to 1 | 1 to 30
CC(C)(O)C(O)c1cc2nc(-c3cnn(CF)c3)c(N3CCC(=Cc4ccc(F)cc4F)CC3)nc2cn1 (single isomer, unassigned) [Compound 771] | 0.1 to 1 | 0.1 to 1
Cn1cc(-c2nc3cc([C@@](C)(O)C(C)(C)O)ncc3nc2N2CCN(Cc3ccc(F)cc3F)CC2)cn1 (single isomer, unassigned) [Compound 772] | 0.1 to 1 | 0.1 to 1
Cn1cc(-c2nc3cc([C@](C)(O)C(C)(C)O)ncc3nc2N2CCN(Cc3ccc(F)cc3F)CC2)cn1 (single isomer, unassigned) [Compound 773] | 0.1 to 1 | 0.1 to 1
CC(C)(O)[C@](C)(O)c1cc2nc(-c3cnn(C4CC4)c3)c(N3CCN(Cc4ccccc4F)CC3)nc2cn1 (single isomer, unassigned) [Compound 775] | 0.1 to 1 | 1 to 30
CC(C)(O)[C@@](C)(O)c1cc2nc(-c3cnn(C4CC4)c3)c(N3CCN(Cc4ccccc4F)CC3)nc2cn1 (single isomer, unassigned) [Compound 776] | 0.1 to 1 | 1 to 30

Reference: US20260042755A1, “GPR6 INVERSE AGONISTS” (MapLight Therapeutics, Inc., priority 2022, published 2026)
